Experiment: DPPH radical scavenging antioxidant test
Assay type: biochemical
Conditions: 517 nm; for Inhibition (radical scavenging inhibition): 0.2 mL DPPH (0.75 mM), compound 3 μM in ethanol, 30 min incubation in the dark
Experimental: The antioxidant properties of the 4,4′-naphthalene-1,5-diylbis(diazene-2,1-diyl)dinaphthalen-1-ol were studied by adding 0.2 mL DPPH (0.75 mM)) to compound 4,4′-naphthalene-1,5-diylbis(diazene-2,1-diyl)dinaphthalen-1-01 (III) (3 μM) in ethanol. After 30 min of incubation in the dark, the absorbance was read against a blank at 517 nm. Ascorbic acid (vitamin C) was used as standard antioxidants (positive control). A blank sample was prepared by 0.2 ml of DPPH in 3 ml ethanol. A negative control sample was run using ethanol instead of the sample. The radical scavenging inhibition was calculated using the following equation: […]

Structure (SMILES)	Inhibition (radical scavenging inhibition)	antioxidant potential compared to vitamin C (in words) (DPPH in vitro test, vitamin C as positive control)
Oc1ccc(N=Nc2cccc3c(N=Nc4ccc(O)c5ccccc45)cccc23)c2ccccc12 [Product III, 4,4′-naphthalene-1,5-diylbis(diazene-2,1-diyl)dinaphthalen-1-ol]	54%	high potential as an antioxidant compared to vitamin C
O=C1O[C@H]([C@@H](O)CO)C(O)=C1O [vit c, Ascorbic acid, reference compound]	74%	–

Reference: patent publication US11919837B1, “4,4′-naphthalene-1,5-diylbis(diazene-2,1-diyl)dinaphthalen-1-ol as an antioxidant compound” (KING FAISAL UNIVERSITY, priority 2023, dated 2024)
